± gives the standard deviation of the averaged measurements.
Tests used:
Test in all cases: level (log10 ratio to DMSO vehicle control); higher = higher biomarker level / cell amount than vehicle control
Perfluoropropanoic acid = compound: O=C(O)C(F)(F)C(F)(F)F [Perfluoropropanoic acid]; conditions: in DMSO
Method: (§1)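 BioMAP Diversity Plus panel of 12 human primary cell co-culture systems (3C, 4H, LPS, SAg, BT, BF4T, BE3C, CASM3C, HDF3CGF, KF3CT, MyoF, Mphg). Compounds were added 1 h before stimulation and left for 24 h (MyoF 48 h; BT 72 h for soluble read-outs or 6 d for IgG). Biomarkers were read by ELISA, cytotoxicity by SRB, PBMC viability and proliferation by Alamar Blue. Each well value was divided by the mean of 8 DMSO control wells on the same plate and log10 transformed; duplicate blinded samples were tested at 4 concentrations.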

[1] = compound: CCN(CCO)S(=O)(=O)C(F)(F)C(F)(F)C(F)(F)C(F)(F)C(F)(F)C(F)(F)C(F)(F)C(F)(F)F [N-Ethyl-N-(2-hydroxyethyl)perfluorooctanesulfonamide]; conditions: in DMSO
Method: as §1

Heptafluorobutyramide = compound: NC(=O)C(F)(F)C(F)(F)C(F)(F)F [Heptafluorobutyramide]; conditions: in DMSO
Method: as §1

[2] = compound: FC(F)C(F)(F)COCC1CO1 [((2,2,3,3-Tetrafluoropropoxy)methyl)oxirane]; conditions: in DMSO
Method: as §1

Perfluorodecanoic acid = compound: O=C(O)C(F)(F)C(F)(F)C(F)(F)C(F)(F)C(F)(F)C(F)(F)C(F)(F)C(F)(F)C(F)(F)F [Perfluorodecanoic acid]; conditions: in DMSO
Method: as §1

[3] = compound: OCCCC(F)(F)C(F)(F)C(F)(F)C(F)(F)C(F)(F)C(F)(F)C(F)(F)F [7:3 Fluorotelomer alcohol]; conditions: 6700 nM; in DMSO
Method: as §1

[4] = compound: C=CC(=O)OCC(F)(F)C(F)(F)C(F)(F)C(F)(F)C(F)(F)C(F)(F)C(F)(F)F [1H,1H-Perfluorooctyl acrylate]; conditions: in DMSO
Method: as §1

| Test System | level (log10) (Perfluoropropanoic acid; 6700 nM) | level (log10) (Perfluoropropanoic acid; 20000 nM) | level (log10) (Perfluoropropanoic acid; 60000 nM) | level (log10) ([1]; 6700 nM) | level (log10) ([1]; 20000 nM) | level (log10) (Heptafluorobutyramide; 6700 nM) | level (log10) (Heptafluorobutyramide; 20000 nM) | level (log10) (Heptafluorobutyramide; 60000 nM) | level (log10) ([2]; 6700 nM) | level (log10) ([2]; 20000 nM) | level (log10) ([2]; 60000 nM) | level (log10) (Perfluorodecanoic acid; 6700 nM) | level (log10) (Perfluorodecanoic acid; 20000 nM) | level (log10) [3] | level (log10) ([4]; 6700 nM) | level (log10) ([4]; 20000 nM) | level (log10) ([4]; 60000 nM) |
| --- | --- | --- | --- | --- | --- | --- | --- | --- | --- | --- | --- | --- | --- | --- | --- | --- | --- |
| 4H:CCL26/Eotaxin-3 | -0.0115 ± 0.0092 | -0.0045 ± 0.012 | -0.015 ± 0.017 | 0.077 ± 0.031 | -0.143 ± 0.14 | 0.0315 ± 0.021 | 0.0345 ± 0.0035 | 0.0185 ± 0.019 | 0.0035 ± 0.0078 | 0 ± 0.041 | 0.014 ± 0.05 | -0.0085 ± 0.011 | -0.0305 ± 0.011 | 0.005 ± 0.014 | 0.002 ± 0.023 | -0.002 ± 0.0057 | -0.0005 ± 0.0021 |
| 4H:SRB | 0 ± 0.0028 | -0.002 ± 0.0071 | 0.0095 ± 0.0092 | -0.016 ± 0.0057 | -0.0605 ± 0.029 | -0.0275 ± 0.026 | -0.0165 ± 0.0035 | -0.006 ± 0.018 | -0.015 ± 0.0085 | -0.003 ± 0.0042 | -0.012 ± 0.027 | 0.003 ± 0.0099 | -0.0055 ± 0.00071 | -0.0015 ± 0.0064 | 0.003 ± 0.016 | 0.0015 ± 0.013 | 0.0045 ± 0.0064 |
| LPS:sPGE2 | -0.017 ± 0.05 | -0.018 ± 0.0071 | -0.011 ± 0.04 | -0.023 ± 0.023 | 0.07 ± 0.0042 | -0.0305 ± 0.057 | 0.011 ± 0.0042 | -0.004 ± 0.0071 | -0.0355 ± 0.032 | -0.022 ± 0.011 | -0.037 ± 0.014 | -0.017 ± 0.025 | -0.052 ± 0.0071 | 0.101 ± 0.03 | -0.045 ± 0.017 | -0.0805 ± 0.0035 | -0.109 ± 0.027 |
| SAg:CD40 | -0.045 ± 0.016 | -0.0335 ± 0.044 | -0.009 ± 0.031 | 0 ± 0.028 | -0.052 ± 0.023 | -0.031 ± 0.042 | -0.039 ± 0.042 | -0.034 ± 0.068 | -0.0095 ± 0.018 | -0.009 ± 0.0057 | -0.0015 ± 0.0078 | -0.0095 ± 0.021 | -0.0305 ± 0.012 | -0.031 ± 0.0057 | -0.005 | -0.001 ± 0.0028 | -0.02 ± 0.035 |
| LPS:CD62E/E-Selectin | -0.007 ± 0.0014 | -0.0195 ± 0.023 | -0.0025 ± 0.0078 | 0.071 ± 0.02 | 0.073 ± 0.0042 | -0.0065 ± 0.022 | -0.0195 ± 0.016 | -0.0365 ± 0.035 | 0.012 ± 0.02 | 0.0055 ± 0.033 | 0.0145 ± 0.033 | -0.0115 ± 0.00071 | -0.0205 ± 0.015 | -0.0125 ± 0.016 | 0.0005 ± 0.0021 | 0.0095 ± 0.0092 | 0.0115 ± 0.011 |
| BF4T:PAI-I | -0.004 ± 0.023 | 0.01 ± 0.013 | 0.029 ± 0.044 | 0.014 ± 0.0014 | -0.0105 ± 0.00071 | -0.0025 ± 0.0021 | -0.014 ± 0.016 | 0.005 ± 0.027 | -0.0075 ± 0.00071 | -0.011 ± 0.0028 | 0.0105 ± 0.026 | 0.0185 ± 0.00071 | -0.119 ± 0.043 | -0.0105 ± 0.005 | 0.008 ± 0.0014 | 0 ± 0.0014 | 0.0025 ± 0.013 |
| 4H:CD106/VCAM-1 | -0.0085 ± 0.011 | -0.0075 ± 0.00071 | 0 ± 0.014 | 0.116 ± 0.021 | 0.0765 ± 0.0021 | -0.004 ± 0.021 | -0.014 ± 0.025 | -0.0155 ± 0.015 | 0.01 ± 0.013 | -0.017 ± 0.0042 | -0.023 ± 0.017 | 0.0165 ± 0.0092 | 0.0185 ± 0.029 | 0.019 ± 0.013 | 0.0165 ± 0.036 | 0.032 ± 0.023 | 0.0225 ± 0.059 |
| 3C:SRB | -0.0115 ± 0.0035 | -0.009 ± 0.0028 | -0.0065 ± 0.0021 | -0.0815 ± 0.021 | -0.217 ± 0.011 | -0.0235 ± 0.04 | -0.0095 ± 0.0078 | -0.007 ± 0.024 | -0.0085 ± 0.0078 | -0.008 ± 0.0028 | -0.004 ± 0.0099 | 0.0095 ± 0.0021 | -0.005 ± 0.0042 | -0.005 ± 0.0028 | -0.002 ± 0.0099 | 0.0145 ± 0.011 | 0.015 |

From the supplement of paper PMC10331698
